Measured values taken from patent US8530648B2, “Diaza-spiro[5.5]undecanes” (Novartis AG, priority 2009, dated 2013).

Legend:
[1] = molecular target: T1, hOx2R (Homo sapiens (Human), UniProt O43614); assay: Radioligand binding assay, [125I]orexin A, hOx2R; settings: radioligand [125I]orexin A, competition
Description: (§1) For crude cell membrane preparations, cells (CHO, Chinese hamster ovary or HEK, human embryonic kidney) expressing human orexin 1 or human orexin 2 receptors, were washed with HEPES (10 mM, pH 7.5), scraped off the culture plates with the same buffer, and centrifuged at 4° C. for 5 min at 2500×g. The cell pellet was either stored at −80° C. or used directly. Before the experiments, cell membranes were re-suspended in binding assay buffer (10 mM HEPES, 0.5% (w/v) bovine serum albumin, pH 7.5) by homogenisation with a Polytron homogeniser at 50 Hz for 20 s. Cell membranes were also used as made available by commercial providers.
(§2) In initial saturation experiments (to calculate Bmax), cell homogenates (150 μl) were incubated with 25-300 pM of the radioligand ([^125I]orexin A, 50 μl), 8 concentrations in triplicates in the presence or absence Orexin A (1 μM, 50 μl) to define non specific binding. Bound radioactivity was measured, and data were analysed with the program XLFIT or Graphpad Prism. Protein concentration was determined according to the Bradford/BioRad Protein Assay Kit.
(§3) In competition experiments, cell homogenates (150 μl) were incubated in assay buffer (10 mM HEPES, pH 7.5, 0.5% (w/v) bovine serum albumin, 5 mM MgCl2, 1 mM CaCl2, and tween 0.05%) for 1 h at room temperature with about 100 pM of the radioligand ([^125I]orexin A, 2100 Ci/mmole, 50 μl), and with various concentrations of compounds of the invention (50 μl) in triplicates; non-specific binding was determined in the presence of Orexin A (1 μM). Reactions were terminated by vacuum filtration, 3 washes of ice cold wash buffer (Tris-HCl pH 7.4/10 mM, with NaCl 154 mM).

[2] = molecular target: T2, hOx1R (Homo sapiens (Human), UniProt O43613); assay: Radioligand binding assay, [125I]orexin A, hOx1R; settings: radioligand [125I]orexin A, competition
Description: as §1, §2, §3

[3] = molecular target: T1, hOx2R; assay: Radioligand binding assay, [3H]-SB649868, hOx2R; settings: radioligand [3H]-SB649868, competition
Description: as §1
(§4) Bound radioactivity was measured, and data were analysed with the program XLFIT or Graphpad Prism. Protein concentration was determined according to the Bradford/BioRad Protein Assay Kit.
(§5) In competition experiments, cell homogenates (150 μl) were incubated in assay buffer (10 mM HEPES, pH 7.5, 0.5% (w/v) bovine serum albumin, 5 mM MgCl2, 1 mM CaCl2, and tween 0.05%) for 1 h at room temperature with about 1 nM of the radioligand [^3H]-SB649868, 66 Ci/mmole, 50 μl), and with various concentrations of compounds of the invention (50 μl) in triplicates; non-specific binding was determined in the presence of almorexant (10 μM).

[4] = molecular target: T2, hOx1R; assay: Radioligand binding assay, [3H]-SB649868, hOx1R; settings: radioligand [3H]-SB649868, competition
Description: as §1, §4, §5

[5] = molecular target: T1, hOx2R; assay: Calcium accumulation in cells (FLIPR), hOx2R; type: cell-based; settings: inhibition of orexin A induced calcium accumulation, Cheng and Prusoff correction
How it was run: (§6)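 Cells expressing human orexin 1 or 2 receptor, serum-deprived overnight, loaded with Fluo-4-AM (2 μM) plus 0.1 mM probenecid, pH 7.4 HEPES buffer with 1% BSA.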

[6] = molecular target: T2, hOx1R; assay: Calcium accumulation in cells (FLIPR), hOx1R; type: cell-based; settings: for Ki: inhibition of orexin A induced calcium accumulation, Cheng and Prusoff correction
How it was run: as §6

T1 sequence (O43614 whole entry): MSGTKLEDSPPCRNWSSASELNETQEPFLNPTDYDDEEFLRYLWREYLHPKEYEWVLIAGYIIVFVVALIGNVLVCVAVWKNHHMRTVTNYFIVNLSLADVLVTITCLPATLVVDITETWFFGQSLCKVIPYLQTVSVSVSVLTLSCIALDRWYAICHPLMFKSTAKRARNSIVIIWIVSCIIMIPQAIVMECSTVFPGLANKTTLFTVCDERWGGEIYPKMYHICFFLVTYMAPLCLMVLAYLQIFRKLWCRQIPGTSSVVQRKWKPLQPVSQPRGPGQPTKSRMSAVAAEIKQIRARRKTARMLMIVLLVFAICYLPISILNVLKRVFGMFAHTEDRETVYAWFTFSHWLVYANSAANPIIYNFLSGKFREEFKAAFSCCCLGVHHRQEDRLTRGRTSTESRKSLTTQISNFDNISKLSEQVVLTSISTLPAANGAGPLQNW
T2 sequence (O43613 whole entry): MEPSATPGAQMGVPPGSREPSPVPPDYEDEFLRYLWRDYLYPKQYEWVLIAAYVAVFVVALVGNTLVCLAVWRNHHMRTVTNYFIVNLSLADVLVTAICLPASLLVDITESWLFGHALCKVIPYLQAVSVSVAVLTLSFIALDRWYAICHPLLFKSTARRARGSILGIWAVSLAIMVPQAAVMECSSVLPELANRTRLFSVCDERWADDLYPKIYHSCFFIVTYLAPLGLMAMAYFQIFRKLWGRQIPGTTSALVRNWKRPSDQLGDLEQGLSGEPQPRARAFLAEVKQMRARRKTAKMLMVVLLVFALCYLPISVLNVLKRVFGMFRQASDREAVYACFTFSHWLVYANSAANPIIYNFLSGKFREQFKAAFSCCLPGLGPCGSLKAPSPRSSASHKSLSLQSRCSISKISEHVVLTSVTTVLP

In the case of `O=C1N(Cc2ccc3ccccc3c2)CCCC12CCN(c1cnc3ccccc3n1)CC2` [Example 7, 2-(naphthalen-2-ylmethyl)-9-(quinoxalin-2-yl)-2,9-diazaspiro[5.5]undecan-1-one], the Kd [1] is reported as 9870 nM and the Kd [2] is reported as > 10000 nM.
A Kd [3] of 219 nM, a Kd [4] of 1150 nM and a Ki [5] of 55 nM were found for `Cc1nc(CN2CCCC3(CCN(c4cnc5ccccc5n4)CC3)C2=O)c(-c2cccc(F)c2)s1` [Example 73, 2-((5-(3-fluorophenyl)-2-methylthiazol-4-yl)methyl)-9-(quinoxalin-2-yl)-2,9-diazaspiro[5.5]undecan-1-one] in this work. It also gave a Ki [6] of 438 nM.
A Kd [3] of 1460 nM, a Kd [4] of 2330 nM and a Ki [5] of 98 nM were found for `O=C1N(Cc2cccc3nonc23)CCCC12CCN(c1cnc3ccccc3n1)CC2` [Example 77, 2-(benzo[c][1,2,5]oxadiazol-4-ylmethyl)-9-(quinoxalin-2-yl)-2,9-diazaspiro[5.5]undecan-1-one] in this work. For the same molecule, the Ki [6] was 1150 nM.
A Kd [3] of 624 nM, a Kd [4] of 5090 nM and a Ki [5] of 81 nM were found for `O=C1N(Cc2cccc3c2OCCO3)CCCC12CCN(c1nccc3occc13)CC2` [Example 82, 2-((2,3-dihydrobenzo[b][1,4]dioxin-5-yl)methyl)-9-(furo[3,2-c]pyridin-4-yl)-2,9-diazaspiro[5.5]undecan-1-one] in this work. The inhibition at 10 µM ([6]; measured at a concentration of 10 μM of compound) was 33%.
A Kd [3] of 364 nM, a Kd [4] of 2760 nM and a Ki [5] of 80 nM were found for `O=C1N(Cc2cccc(-n3cccn3)n2)CCCC12CCN(c1cnc3ccccc3n1)CC2` [Example 83, 2-((6-(1H-pyrazol-1-yl)pyridin-2-yl)methyl)-9-(quinoxalin-2-yl)-2,9-diazaspiro[5.5]undecan-1-one] in this work. For the same molecule, the Ki [6] was 1730 nM.
A Kd [3] of 36 nM, a Kd [4] of 429 nM and a Ki [5] of 8 nM were found for `O=C1N(Cc2ncoc2-c2ccccc2)CCCC12CCN(c1cnc3ccccc3n1)CC2` [Example 95, 2-((5-phenyloxazol-4-yl)methyl)-9-(quinoxalin-2-yl)-2,9-diazaspiro[5.5]undecan-1-one] in this work. The Ki [6] was 223 nM.
A Kd [3] of 223 nM, a Kd [4] of 980 nM and a Ki [5] of 50 nM were found for `Cc1nc(-c2cccc(CN3CCCC4(CCN(c5cnc6ccccc6n5)CC4)C3=O)c2)no1` [Example 98, 2-(3-(5-methyl-1,2,4-oxadiazol-3-yl)benzyl)-9-(quinoxalin-2-yl)-2,9-diazaspiro[5.5]undecan-1-one] in this work. It also gave a Ki [6] of 425 nM.
A Kd [3] of 559 nM, a Kd [4] of 3820 nM and a Ki [5] of 85 nM were found for `COc1cccc(-n2cncc2CN2CCCC3(CCN(c4cnc5ccccc5n4)CC3)C2=O)c1` [Example 111, 2-((1-(3-methoxyphenyl)-1H-imidazol-5-yl)methyl)-9-(quinoxalin-2-yl)-2,9-diazaspiro[5.5]undecan-1-one] in this work. It also gave a Ki [6] of 1290 nM.
A Kd [3] of 630 nM, a Kd [4] of 3500 nM and a Ki [5] of 82 nM were found for `O=C1N(Cc2cccc3nsnc23)CCCC12CCN(c1cnc3ccccc3n1)CC2` [Example 113, 2-(benzo[c][1,2,5]thiadiazol-4-ylmethyl)-9-(quinoxalin-2-yl)-2,9-diazaspiro[5.5]undecan-1-one] in this work. The Ki [6] was 1360 nM.
A Kd [3] of 324 nM, a Kd [4] of 4990 nM and a Ki [5] of 137 nM were found for `Cc1ccc(-n2nccn2)c(CN2CCCC3(CCN(c4cnc5ccccc5n4)CC3)C2=O)c1` [Example 125, 2-(5-methyl-2-(2H-1,2,3-triazol-2-yl)benzyl)-9-(quinoxalin-2-yl)-2,9-diazaspiro[5.5]undecan-1-one] in this work. For the same molecule, the Ki [6] was 2290 nM.
In the case of `Cc1ccc(-n2nccn2)cc1CN1CCCC2(CCN(c3cnc4ccccc4n3)CC2)C1=O` [Example 128, 2-(2-methyl-5-(2H-1,2,3-triazol-2-yl)benzyl)-9-(quinoxalin-2-yl)-2,9-diazaspiro[5.5]undecan-1-one], the Kd [3] is reported as 160 nM, the Kd [4] is reported as > 10000 nM and the Ki [5] is reported as 73 nM. For the same molecule, the Ki [6] was 967 nM.
A Kd [3] of 25 nM, a Kd [4] of 105 nM and a Ki [5] of 9 nM were found for `O=C1N(Cc2n[nH]c3ccccc23)CCCC12CCN(c1cnc3ccccc3n1)CC2` [Example 129, 2-((1H-indazol-3-yl)methyl)-9-(quinoxalin-2-yl)-2,9-diazaspiro[5.5]undecan-1-one] in this work. The Ki [6] was 126 nM.
A Kd [3] of 134 nM, a Kd [4] of 1280 nM and a Ki [5] of 29 nM were found for `Cn1cc(CN2CCCC3(CCN(c4cnc5ccccc5n4)CC3)C2=O)c2ccccc21` [Example 130, 2-((1-methyl-1H-indol-3-yl)methyl)-9-(quinoxalin-2-yl)-2,9-diazaspiro[5.5]undecan-1-one] in this work. For the same molecule, the Ki [6] was 422 nM.
A Kd [3] of 379 nM, a Kd [4] of 1580 nM and a Ki [5] of 81 nM were found for `Cc1ccc2oc(N3CCC4(CCCC(=O)N4Cc4cccc5[nH]ccc45)CC3)nc2c1` [Example 140, 1-((1H-indol-4-yl)methyl)-9-(5-methylbenzo[d]oxazol-2-yl)-1,9-diazaspiro[5.5]undecan-2-one] in this work. It also gave a Ki [6] of 662 nM.
A Kd [3] of 50 nM, a Kd [4] of 307 nM and a Ki [5] of 39 nM were found for `Cn1cc(CN2C(=O)CCCC23CCN(c2cnc4ccccc4n2)CC3)c2cccnc21` [Example 143, 1-((1-methyl-1H-pyrrolo[2,3-b]pyridin-3-yl)methyl)-9-(quinoxalin-2-yl)-1,9-diazaspiro[5.5]undecan-2-one] in this work. It also gave a Ki [6] of 747 nM.
A Kd [3] of 63 nM, a Kd [4] of 228 nM and a Ki [5] of 7 nM were found for `Cc1cnc(-c2cccc(CN3CCCC4(CCN(c5cnc6ccccc6n5)CC4)C3=O)c2)o1` [Example 147, 2-(3-(5-methyloxazol-2-yl)benzyl)-9-(quinoxalin-2-yl)-2,9-diazaspiro[5.5]undecan-1-one] in this work. For the same molecule, the Ki [6] was 94 nM.
A Kd [3] of 268 nM, a Kd [4] of 3450 nM and a Ki [5] of 19 nM were found for `O=C1N(Cc2ccccc2-c2ncco2)CCCC12CCN(c1cnc3ccccc3n1)CC2` [Example 149, 2-(2-(oxazol-2-yl)benzyl)-9-(quinoxalin-2-yl)-2,9-diazaspiro[5.5]undecan-1-one] in this work. For the same molecule, the Ki [6] was 981 nM.
A Kd [3] of 185 nM, a Kd [4] of 2100 nM and a Ki [5] of 45 nM were found for `O=C1N(Cc2ccccc2-c2ccco2)CCCC12CCN(c1cnc3ccccc3n1)CC2` [Example 150, 2-(2-(furan-2-yl)benzyl)-9-(quinoxalin-2-yl)-2,9-diazaspiro[5.5]undecan-1-one] in this work. It also gave a Ki [6] of 744 nM.
A Kd [3] of 84 nM, a Kd [4] of 939 nM and a Ki [5] of 69 nM were found for `O=C1N(Cc2c[nH]c3ccccc23)CCCC12CCN(c1nc3ccccc3[nH]1)CC2` [Example 152, 2-((1H-indol-3-yl)methyl)-9-(1H-benzo[d]imidazol-2-yl)-2,9-diazaspiro[5.5]undecan-1-one] in this work. For the same molecule, the Ki [6] was 1560 nM.
A Kd [3] of 139 nM, a Kd [4] of 1020 nM and a Ki [5] of 23 nM were found for `O=C1N(Cc2c[nH]c3ccccc23)CCCC12CCN(c1nccc3occc13)CC2` [Example 156, 2-((1H-indol-3-yl)methyl)-9-(furo[3,2-c]pyridin-4-yl)-2,9-diazaspiro[5.5]undecan-1-one] in this work. It also gave a Ki [6] of 623 nM.
A Kd [3] of 111 nM, a Kd [4] of 806 nM and a Ki [5] of 68 nM were found for `O=C1N(Cc2c[nH]c3ccccc23)CCCC12CCN(c1ccc3ccccc3n1)CC2` [Example 160, 2-((1H-indol-3-yl)methyl)-9-(quinolin-2-yl)-2,9-diazaspiro[5.5]undecan-1-one] in this work. For the same molecule, the Ki [6] was 571 nM.
A Kd [3] of 12 nM, a Kd [4] of 90 nM and a Ki [5] of 14 nM were found for `Cc1cc(N2CCC3(CCCN(Cc4c[nH]c5ccccc45)C3=O)CC2)nc2ccccc12` [Example 164, 2-((1H-indol-3-yl)methyl)-9-(4-methylquinolin-2-yl)-2,9-diazaspiro[5.5]undecan-1-one] in this work. The Ki [6] was 115 nM.
A Kd [3] of 152 nM, a Kd [4] of 1670 nM and a Ki [5] of 81 nM were found for `O=C1N(Cc2c[nH]c3ccccc23)CCCC12CCN(c1cc3nccnc3cn1)CC2` [Example 167, 2-((1H-indol-3-yl)methyl)-9-(pyrido[4,3-b]pyrazin-7-yl)-2,9-diazaspiro[5.5]undecan-1-one] in this work. The Ki [6] was 665 nM.
A Kd [3] of 123 nM, a Kd [4] of 926 nM and a Ki [5] of 70 nM were found for `O=C1N(Cc2c[nH]c3ccccc23)CCCC12CCN(c1ncc3ccccc3n1)CC2` [Example 169, 2-((1H-indol-3-yl)methyl)-9-(quinazolin-2-yl)-2,9-diazaspiro[5.5]undecan-1-one] in this work. The Ki [6] was 966 nM.
